Key:
[1] = Induction of anti-CD3/CD28 antibodies-stimulated human T cell activation at 0.3 uM assessed fold increase in CD25 expression measured by ELISA assay; format: functional, T cell line
[2] = Induction of anti-CD3/CD28 antibodies-stimulated human T cell activation at 0.3 uM assessed fold increase in IL-2 secretion measured by ELISA assay; format: functional, T cell line
[3] = Induction of anti-CD3 antibodies-stimulated human T cell activation at 1 uM assessed fold increase in IL-2 secretion measured by ELISA assay; format: functional, T cell line; also: reference of the scale not given here
[4] = Induction of anti-CD3/CD28 antibodies-stimulated human T cell activation at 1 uM assessed fold increase in CD25 expression measured by ELISA assay; format: functional, T cell line
[5] = target: E3 ubiquitin-protein ligase CBL-B (Homo sapiens, UniProt Q13191); test: Inhibition of N-terminal Avi-tagged human CBL-B (36 to 427 residues) incubated with 60 nM Src kinase for 1.5 hrs followed by incubation with fluorescently labeled UbcH5B-Ub for 1 hr and measured by TR-FRET assay; format: single protein
E3 ubiquitin-protein ligase CBL-B, sequence (Q13191 whole entry, the tested form may be a part): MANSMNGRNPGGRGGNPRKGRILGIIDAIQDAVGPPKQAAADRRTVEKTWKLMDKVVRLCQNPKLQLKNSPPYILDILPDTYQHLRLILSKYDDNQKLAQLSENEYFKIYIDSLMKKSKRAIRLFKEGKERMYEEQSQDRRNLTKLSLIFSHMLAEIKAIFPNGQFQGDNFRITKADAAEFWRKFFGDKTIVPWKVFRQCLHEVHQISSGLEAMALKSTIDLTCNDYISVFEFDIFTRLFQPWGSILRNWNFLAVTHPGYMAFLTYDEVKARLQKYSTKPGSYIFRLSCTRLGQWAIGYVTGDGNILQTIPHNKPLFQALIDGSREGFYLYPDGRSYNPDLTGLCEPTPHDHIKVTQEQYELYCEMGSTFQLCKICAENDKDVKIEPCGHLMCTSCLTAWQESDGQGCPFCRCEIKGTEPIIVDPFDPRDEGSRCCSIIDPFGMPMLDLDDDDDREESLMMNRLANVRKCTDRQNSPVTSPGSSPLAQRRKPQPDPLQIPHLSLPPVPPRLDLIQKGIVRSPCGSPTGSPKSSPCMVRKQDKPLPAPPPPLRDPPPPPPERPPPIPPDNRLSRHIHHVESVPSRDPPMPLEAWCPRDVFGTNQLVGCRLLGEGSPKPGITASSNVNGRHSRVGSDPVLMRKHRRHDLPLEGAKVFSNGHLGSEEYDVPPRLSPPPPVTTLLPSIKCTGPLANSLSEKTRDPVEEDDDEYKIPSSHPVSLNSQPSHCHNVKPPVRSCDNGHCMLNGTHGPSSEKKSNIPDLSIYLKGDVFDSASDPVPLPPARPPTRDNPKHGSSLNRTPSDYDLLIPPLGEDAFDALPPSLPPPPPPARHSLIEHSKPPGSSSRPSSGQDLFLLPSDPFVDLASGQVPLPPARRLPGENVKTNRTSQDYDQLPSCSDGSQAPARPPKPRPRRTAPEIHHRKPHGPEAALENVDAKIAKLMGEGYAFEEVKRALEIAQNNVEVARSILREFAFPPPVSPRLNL

[6] = Induction of anti-CD3/CD28 antibodies-stimulated human T cell activation at 1 uM assessed fold increase in IL-2 secretion measured by ELISA assay; format: functional, T cell line
[7] = Induction of anti-CD3 antibodies-stimulated human T cell activation at 1 uM assessed fold increase in CD25 expression measured by ELISA assay; format: functional, T cell line; also: reference of the scale not given here

Structure (SMILES): CN1CCN(Cc2cc3c(c(C(F)(F)F)c2)CN(c2cccc(C4(Cc5nncn5C)COC4)c2)C3=O)CC1
- fold change (FC) [1]: 1.31
- fold change (FC) [2]: 2.51
- fold change (FC) [3]: >=0.201
- fold change (FC) [4]: 1.31
- IC50 [5]: < 100 nM
- fold change (FC) [6]: >=7.5
- fold change (FC) [7]: >=1.001

Structure (SMILES): Cn1cnnc1CC1(c2cccc(NC(=O)c3cc(OC(F)F)cc(C4CC4)n3)c2)COC1
- fold change (FC) [1]: 1.01
- fold change (FC) [2]: 5
- fold change (FC) [3]: >=0.201
- fold change (FC) [4]: 1.01
- IC50 [5]: < 100 nM
- fold change (FC) [6]: >=7.5
- fold change (FC) [7]: >=1.001

Structure (SMILES): CC1CCN(Cc2cc3c(c(C(F)(F)F)c2)CN(c2cccc(C4(Cc5nncn5C)COC4)c2)C3=O)CC1(F)F (stereo not drawn)
- fold change (FC) [1]: 1.31
- fold change (FC) [2]: >=7.5
- fold change (FC) [3]: >=0.201
- fold change (FC) [4]: 1.31
- IC50 [5]: < 100 nM
- fold change (FC) [6]: >=7.5
- fold change (FC) [7]: >=1.001

Structure (SMILES): Cn1cnnc1CC1(c2cccc(N3Cc4c(cc(CN5CC[C@H](c6ccccc6)C5)cc4C(F)(F)F)C3=O)c2)COC1
- fold change (FC) [1]: 1.01
- fold change (FC) [2]: 5
- fold change (FC) [3]: >=0.201
- fold change (FC) [4]: 1.01
- IC50 [5]: < 100 nM
- fold change (FC) [6]: >=7.5
- fold change (FC) [7]: >=1.001

Structure (SMILES): Cn1cnnc1CC1(c2cccc(N3Cc4c(cc(CN5CC[C@@H]6C[C@@H]65)cc4C(F)(F)F)C3=O)c2)COC1
- fold change (FC) [1]: 1.51
- fold change (FC) [2]: >=7.5
- fold change (FC) [3]: >=0.201
- fold change (FC) [4]: 1.51
- IC50 [5]: < 100 nM
- fold change (FC) [6]: >=7.5
- fold change (FC) [7]: >=1.001

Structure (SMILES): CN1C2CCC1CN(c1cc3c(c(C(F)(F)F)c1)CN(c1cccc([C@@](C)(F)C(F)(F)c4nncn4C)c1)C3=O)C2
- fold change (FC) [1]: 1.01
- fold change (FC) [2]: 1.01
- fold change (FC) [3]: 0.101
- fold change (FC) [4]: 1.31
- IC50 [5]: < 100 nM
- fold change (FC) [6]: 2.51
- fold change (FC) [7]: 0.801

Structure (SMILES): Cn1cnnc1[C@H](F)C1(c2cccc(N3Cc4c(cc(CN5CCCC5)cc4C(F)(F)F)C3=O)c2)COC1
- fold change (FC) [1]: 1.31
- fold change (FC) [2]: >=7.5
- fold change (FC) [3]: >=0.201
- fold change (FC) [4]: 1.31
- IC50 [5]: < 100 nM
- fold change (FC) [6]: >=7.5
- fold change (FC) [7]: >=1.001

Structure (SMILES): CN1CC[C@@H](O)[C@H](Cc2cc3c(c(C(F)(F)F)c2)CN(c2cccc(C4(Cc5nncn5C)COC4)c2)C3=O)C1 (relative stereo)
- fold change (FC) [1]: 1.01
- fold change (FC) [2]: 1.01
- fold change (FC) [3]: 0.101
- fold change (FC) [4]: 1.01
- IC50 [5]: < 100 nM
- fold change (FC) [6]: 2.51
- fold change (FC) [7]: 0.801

Structure (SMILES): Cn1cnnc1CC1(c2cccc(N3Cc4c(cc(CN5CCCC56COC6)cc4C(F)(F)F)C3=O)c2)COC1
- fold change (FC) [1]: 1.01
- fold change (FC) [2]: 1.01
- fold change (FC) [3]: 0.151
- fold change (FC) [4]: 1.31
- IC50 [5]: < 100 nM
- fold change (FC) [6]: 5
- fold change (FC) [7]: 0.801

Structure (SMILES): Cn1cnnc1CC1(c2cccc(NC(=O)c3csc(C(F)(F)F)n3)c2)COC1
- fold change (FC) [1]: 1.01
- fold change (FC) [2]: 1.01
- fold change (FC) [3]: 0.051
- fold change (FC) [4]: 1.01
- IC50 [5]: < 100 nM
- fold change (FC) [6]: 1.01
- fold change (FC) [7]: 0.601

Structure (SMILES): Cn1cnnc1CC1(c2cccc(N3Cc4c(cc(CN5C6CCC5CC6)cc4C(F)(F)F)C3=O)c2)COC1
- fold change (FC) [1]: 1.51
- fold change (FC) [2]: >=7.5
- fold change (FC) [3]: >=0.201
- fold change (FC) [4]: 1.51
- IC50 [5]: < 100 nM
- fold change (FC) [6]: >=7.5
- fold change (FC) [7]: >=1.001

Structure (SMILES): CC(c1cc2c(c(C3CC3)n1)CN(c1cccc(C3(Cc4nncn4C)COC3)c1)C2=O)N1CCCC1 (stereo not drawn)
- fold change (FC) [1]: 1.01
- fold change (FC) [2]: 1.01
- fold change (FC) [3]: <=0.05
- fold change (FC) [4]: 1.01
- IC50 [5]: < 100 nM
- fold change (FC) [6]: 2.51
- fold change (FC) [7]: 0.601

Structure (SMILES): CN1CCC(=O)C(Cc2cc3c(c(C(F)(F)F)c2)CN(c2cccc(C4(Cc5nncn5C)COC4)c2)C3=O)C1 (stereo not drawn)
- fold change (FC) [1]: 1.01
- fold change (FC) [2]: >=7.5
- fold change (FC) [3]: >=0.201
- fold change (FC) [4]: 1.01
- IC50 [5]: < 100 nM
- fold change (FC) [6]: >=7.5
- fold change (FC) [7]: >=1.001

Structure (SMILES): CCOc1cc(NC(=O)c2cc(C)nc(C3CC3)n2)cc(C2(Cc3nncn3C)COC2)c1
- fold change (FC) [1]: 1.01
- fold change (FC) [2]: 2.51
- fold change (FC) [3]: 0.051
- fold change (FC) [4]: 1.01
- IC50 [5]: < 100 nM
- fold change (FC) [6]: 5
- fold change (FC) [7]: 0.801

Structure (SMILES): Cn1cnnc1[C@H](F)C1(c2cccc(N3Cc4c(cc(CN5[C@H]6CC[C@H]5CC(F)C6)cc4C(F)(F)F)C3=O)c2)COC1 (stereo partly drawn)
- fold change (FC) [1]: >=1.76
- fold change (FC) [2]: >=7.5
- fold change (FC) [3]: >=0.201
- fold change (FC) [4]: >=1.76
- IC50 [5]: < 100 nM
- fold change (FC) [6]: >=7.5
- fold change (FC) [7]: >=1.001

Structure (SMILES): Cn1cnnc1CC1(c2cccc(NC(=O)c3cc(CN4CC[C@H](F)C4)nc(C(F)(F)F)n3)c2)COC1
- fold change (FC) [1]: 1.01
- fold change (FC) [2]: 1.01
- fold change (FC) [3]: 0.051
- fold change (FC) [4]: 1.01
- IC50 [5]: < 100 nM
- fold change (FC) [6]: 2.51
- fold change (FC) [7]: 0.801

Structure (SMILES): C[C@H](Cc1nncn1C)c1cc(C2CCOC2)nc(N2Cc3c(cccc3C(F)(F)F)C2=O)c1 (stereo partly drawn)
- fold change (FC) [1]: 1.01
- fold change (FC) [2]: 1.01
- fold change (FC) [3]: <=0.05
- fold change (FC) [4]: 1.01
- IC50 [5]: ≤ 1000 nM
- fold change (FC) [6]: 1.01
- fold change (FC) [7]: <=0.6

Structure (SMILES): Cn1cnnc1CC1(c2cccc(NC(=O)c3cc(CN4C[C@H]5C[C@H]5C4)cc(C4CC4)n3)c2)COC1
- fold change (FC) [1]: 1.31
- fold change (FC) [2]: >=7.5
- fold change (FC) [3]: >=0.201
- fold change (FC) [4]: 1.31
- IC50 [5]: < 100 nM
- fold change (FC) [6]: >=7.5
- fold change (FC) [7]: >=1.001

Structure (SMILES): CC(O)c1cc2c(c(C(F)(F)F)c1)CN(c1cccc(C3(Cc4nncn4C)COC3)c1)C2=O (stereo not drawn)
- fold change (FC) [1]: 1.01
- fold change (FC) [2]: 1.01
- fold change (FC) [3]: 0.151
- fold change (FC) [4]: 1.01
- IC50 [5]: < 100 nM
- fold change (FC) [6]: 2.51
- fold change (FC) [7]: >=1.001

Structure (SMILES): Cn1cnnc1CC1(c2cccc(N3Cc4c(cc(CN5CCC(F)(F)CC5)cc4C(F)(F)F)C3=O)c2)COC1
- fold change (FC) [1]: 1.31
- fold change (FC) [2]: >=7.5
- fold change (FC) [3]: >=0.201
- fold change (FC) [4]: 1.31
- IC50 [5]: < 100 nM
- fold change (FC) [6]: >=7.5
- fold change (FC) [7]: >=1.001

Structure (SMILES): Cn1cnnc1[C@@H](F)C1(c2cccc(N3Cc4c(cc(CN5CCC6(CC6)C5)cc4C(F)(F)F)C3=O)c2)COC1
- fold change (FC) [1]: 1.01
- fold change (FC) [2]: 5
- fold change (FC) [3]: 0.101
- fold change (FC) [4]: 1.31
- IC50 [5]: < 100 nM
- fold change (FC) [6]: >=7.5
- fold change (FC) [7]: >=1.001

Structure (SMILES): CC[C@H](c1cc2c(c(C(F)(F)F)c1)CN(c1cccc(C3(Cc4nncn4C)COC3)c1)C2=O)N1CC[C@H](F)C1
- fold change (FC) [1]: 1.51
- fold change (FC) [2]: >=7.5
- fold change (FC) [3]: >=0.201
- fold change (FC) [4]: 1.51
- IC50 [5]: < 100 nM
- fold change (FC) [6]: >=7.5
- fold change (FC) [7]: >=1.001

Structure (SMILES): Cn1cnnc1CC1(c2cccc(N3Cc4c(cc(N5CC(C(F)F)C5)cc4C(F)(F)F)C3=O)c2)COC1
- fold change (FC) [1]: 1.01
- fold change (FC) [2]: 2.51
- fold change (FC) [3]: 0.051
- fold change (FC) [4]: 1.01
- IC50 [5]: < 100 nM
- fold change (FC) [6]: 5
- fold change (FC) [7]: 0.801

Structure (SMILES): Cc1cc2c(c(C3CC3)n1)CN(c1cccc(C3(Cc4nncn4C)COC3)c1)C2=O
- fold change (FC) [1]: 1.01
- fold change (FC) [2]: 1.01
- fold change (FC) [3]: 0.051
- fold change (FC) [4]: 1.31
- IC50 [5]: < 100 nM
- fold change (FC) [6]: 2.51
- fold change (FC) [7]: 0.801

Structure (SMILES): Cn1cnnc1CC1(c2cccc(NC(=O)c3cc(CN4CCC4)nc(C4CC4)n3)c2)COC1
- fold change (FC) [1]: 1.01
- fold change (FC) [2]: 2.51
- fold change (FC) [3]: 0.051
- fold change (FC) [4]: 1.31
- IC50 [5]: < 100 nM
- fold change (FC) [6]: 5
- fold change (FC) [7]: 0.801

Structure (SMILES): Cn1cnnc1CC1(c2cccc(N3Cc4c(cc(CN5CCC[C@@H](F)C5)cc4C(F)(F)F)C3=O)c2)COC1
- fold change (FC) [1]: 1.31
- fold change (FC) [2]: >=7.5
- fold change (FC) [3]: >=0.201
- fold change (FC) [4]: 1.31
- IC50 [5]: < 100 nM
- fold change (FC) [6]: >=7.5
- fold change (FC) [7]: >=1.001

Structure (SMILES): Cn1cnnc1CC1(c2cccc(N3Cc4c(cc(C5CCOC5)cc4C(F)(F)F)C3=O)c2)COC1 (stereo not drawn)
- fold change (FC) [1]: 1.01
- fold change (FC) [2]: 2.51
- fold change (FC) [3]: 0.101
- fold change (FC) [4]: 1.01
- IC50 [5]: < 100 nM
- fold change (FC) [6]: 5
- fold change (FC) [7]: 0.801

Structure (SMILES): Cn1cnnc1CC1(c2cccc(N3Cc4c(cc(CN5CCCC5)nc4C4CC4)C3=O)c2)COC1
- fold change (FC) [1]: 1.01
- fold change (FC) [2]: 1.01
- fold change (FC) [3]: <=0.05
- fold change (FC) [4]: 1.01
- IC50 [5]: < 100 nM
- fold change (FC) [6]: 2.51
- fold change (FC) [7]: <=0.6

Structure (SMILES): Cc1cc(C(=O)Nc2cccc(C3([C@H](F)c4nncn4C)COC3)c2)nc(C2CC2)n1
- fold change (FC) [1]: 1.01
- fold change (FC) [2]: 2.51
- fold change (FC) [3]: 0.151
- fold change (FC) [4]: 1.01
- IC50 [5]: < 100 nM
- fold change (FC) [6]: 5
- fold change (FC) [7]: >=1.001

From ChEMBL document CHEMBL5050844 (2019)
